In ChEMBL document CHEMBL1275518, “Low penetration of oseltamivir and its carboxylate into cerebrospinal fluid in healthy Japanese and Caucasian volunteers” (Antimicrob Agents Chemother, 2008):

Columns and labels:
[1] = Tlast in healthy adult plasma at 150 mg, po administered as single dose by LC/MS analysis; type: ADME, organism-based; settings: human, in vivo
[2] = Half life in healthy adult plasma assessed as oseltamivir carboxylate at 150 mg, po administered as single dose by LC/MS analysis; type: ADME, organism-based; settings: human, in vivo
[3] = Tlast in healthy adult CSF assessed as oseltamivir carboxylate at 150 mg, po administered as single dose by LC/MS analysis; type: ADME, organism-based, Cerebrospinal fluid; settings: human, in vivo
[4] = Tlast in healthy adult CSF at 150 mg, po administered as single dose by LC/MS analysis; type: ADME, organism-based, Cerebrospinal fluid; settings: human, in vivo
[5] = Tmax in healthy adult plasma assessed as oseltamivir carboxylate at 150 mg, po administered as single dose by LC/MS analysis; type: ADME, organism-based; settings: human, in vivo
[6] = AUC (0 to last) in healthy adult plasma assessed as oseltamivir carboxylate at 150 mg, po administered as single dose by LC/MS analysis; type: ADME, organism-based; set-up: dose 150 mg, time 0 - last, route oral; settings: human, in vivo
[7] = Cmax in healthy adult plasma assessed as oseltamivir carboxylate at 150 mg, po administered as single dose by LC/MS analysis; type: ADME, organism-based; set-up: dose 150 mg, route oral; settings: human, in vivo
[8] = Half life in healthy adult plasma at 150 mg, po administered as single dose by LC/MS analysis; type: ADME, organism-based; settings: human
[9] = Clast in healthy adult plasma at 150 mg, po administered as single dose by LC/MS analysis; type: ADME, organism-based; settings: human, in vivo
[10] = AUC (0 to last) in healthy adult CSF at 150 mg, po administered as single dose by LC/MS analysis; type: ADME, organism-based; set-up: dose 150 mg, route oral, time 0 - last; settings: human
[11] = AUC (0 to infinity) in healthy adult plasma assessed as oseltamivir carboxylate at 150 mg, po administered as single dose by LC/MS analysis; type: ADME, organism-based; set-up: dose 150 mg, time infinity, route oral; settings: human, in vivo
[12] = Clast in healthy adult CSF at 150 mg, po administered as single dose by LC/MS analysis; type: ADME, organism-based, Cerebrospinal fluid; settings: human, in vivo
[13] = Cmax in healthy adult CSF assessed as oseltamivir carboxylate at 150 mg, po administered as single dose by LC/MS analysis; type: ADME, organism-based, Cerebrospinal fluid; set-up: dose 150 mg, route oral; settings: human, in vivo
[14] = Tmax in healthy adult CSF at 150 mg, po administered as single dose by LC/MS analysis; type: ADME, organism-based, Cerebrospinal fluid; settings: human
[15] = Cmax in healthy adult CSF at 150 mg, po administered as single dose by LC/MS analysis; type: ADME, organism-based, Cerebrospinal fluid; set-up: dose 150 mg, route oral; settings: human
[16] = AUC (0 to infinity) in healthy adult plasma at 150 mg, po administered as single dose by LC/MS analysis; type: ADME, organism-based; set-up: dose 150 mg, time infinity, route oral; settings: human
[17] = Cmax in healthy adult plasma at 150 mg, po administered as single dose by LC/MS analysis; type: ADME, organism-based; set-up: dose 150 mg, route oral; settings: human
[18] = Apparent oral clearance in healthy adult plasma at 150 mg, po administered as single dose by LC/MS analysis; type: ADME, organism-based; settings: human
[19] = AUC (0 to last) in healthy adult CSF assessed as oseltamivir carboxylate at 150 mg, po administered as single dose by LC/MS analysis; type: ADME, organism-based, Plasma; set-up: dose 150 mg, route oral, time 0 - last; settings: human, in vivo
[20] = Ratio of Cmax in healthy adult CSF to Cmax in healthy adult plasma at 150 mg, po administered as single dose; type: ADME, organism-based; settings: human
[21] = Ratio of AUC (0 to last) in healthy adult CSF to AUC (0 to last) in healthy adult plasma assessed as oseltamivir carboxylate at 150 mg, po administered as single dose; type: ADME, organism-based; settings: human
[22] = Tmax in healthy adult plasma at 150 mg, po administered as single dose by LC/MS analysis; type: ADME, organism-based; settings: human
[23] = Ratio of Cmax in healthy adult CSF to Cmax in healthy adult plasma assessed as oseltamivir carboxylate at 150 mg, po administered as single dose; type: ADME, organism-based; settings: human
[24] = Ratio of AUC (0 to last) in healthy adult CSF to AUC (0 to last) in healthy adult plasma at 150 mg, po administered as single dose; type: ADME, organism-based; settings: human
[25] = AUC (0 to last) in healthy adult plasma at 150 mg, po administered as single dose by LC/MS analysis; type: ADME, organism-based; set-up: dose 150 mg, time 0 - last, route oral; settings: human
[26] = Clast in healthy adult plasma assessed as oseltamivir carboxylate at 150 mg, po administered as single dose by LC/MS analysis; type: ADME, organism-based; settings: human, in vivo
[27] = Tmax in healthy adult CSF assessed as oseltamivir carboxylate at 150 mg, po administered as single dose by LC/MS analysis; type: ADME, organism-based, Cerebrospinal fluid; settings: human, in vivo
[28] = Tlast in healthy adult plasma assessed as oseltamivir carboxylate at 150 mg, po administered as single dose by LC/MS analysis; type: ADME, organism-based; settings: human, in vivo
[29] = Clast in healthy adult CSF assessed as oseltamivir carboxylate at 150 mg, po administered as single dose by LC/MS analysis; type: ADME, organism-based, Cerebrospinal fluid; settings: human, in vivo

- Tlast [1]: 10.5 h
- t1/2 [2]: 5.4 h
- Tlast [3]: 12 h
- Tlast [4]: 5.5 h
- Tmax [5]: 5 h
- AUC [6]: 5540 ng·h/mL
- Cmax [7]: 544 ng/mL
- half-life [8]: 1.8 h
- Clast [9]: 2.1 ng/mL
- AUC(0-t) [10]: 7.6 ng·h/mL
- AUC [11]: 5950 ng·h/mL
- Clast [12]: 1.4 ng/mL
- Cmax [13]: 19 ng/mL
- Tmax [14]: 3.5 h
- Cmax [15]: 2.4 ng/mL
- AUC(0-inf) [16]: 313 ng·h/mL
- Cmax [17]: 115 ng/mL
- CL/F [18]: 8370 mL/min
- AUC [19]: 157 ng·h/mL
- Kp [20]: 2.1%
- Ratio AUC [21]: 2.9%
- Tmax [22]: 1 h
- Ratio [23]: 3.5%
- Kp [24]: 2.4%
- AUC(0-t) [25]: 308 ng·h/mL
- Clast [26]: 50.2 ng/mL
- Tmax [27]: 8 h
- Tlast [28]: 24 h
- Clast [29]: 14.5 ng/mL
Structure (SMILES): CCOC(=O)C1=C[C@@H](OC(CC)CC)[C@H](NC(C)=O)[C@@H](N)C1.O=P(O)(O)O [OSELTAMIVIR PHOSPHATE]
